What follows are molecules tested against T1, APOL1 G2 (Homo sapiens, UniProt O14791, DEL388-389) (assay: APOL1-mediated calcium transport (calcium influx) assay, HEK T-REx/GCaMP6f/APOL1 G2 K6.3 cells, FLIPR TETRA). Conditions: prevention of calcium influx; geometric mean of at least 2 assay runs; † = average of a technical replicate from a single assay run.
T1 construct: expressed in transfected cells; host or cells: HEK293 T-REx clonal line stably expressing GCaMP6f (HEK T-REx/GCaMP6f/APOL1 G2 K6.3), doxycycline induced
T1 sequence (O14791 with tags, fused parts or gaps DEL388-389): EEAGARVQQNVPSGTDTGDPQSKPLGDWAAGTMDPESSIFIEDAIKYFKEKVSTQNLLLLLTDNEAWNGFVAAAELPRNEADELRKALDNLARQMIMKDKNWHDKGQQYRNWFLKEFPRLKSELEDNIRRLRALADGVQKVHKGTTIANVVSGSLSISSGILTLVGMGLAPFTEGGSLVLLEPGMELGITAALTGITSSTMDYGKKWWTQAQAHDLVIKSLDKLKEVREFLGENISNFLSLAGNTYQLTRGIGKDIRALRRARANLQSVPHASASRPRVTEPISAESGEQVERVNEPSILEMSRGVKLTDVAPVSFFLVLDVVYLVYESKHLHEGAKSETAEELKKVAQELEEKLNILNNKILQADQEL
Format: cell-based
Summary of the method: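 A HEK293 T-REx clone stably expressing GCaMP6f had APOL1 G2 induced with doxycycline (20 ng/mL solution added) for 6 h. Cells were then washed into Ca2+-free Tyrode's buffer (pH 7.4) and preincubated with compounds (duplicate 8-point) for 10 min at room temperature. Ca2+ injection to 5 mM final produced FLIPR GCaMP fluorescence, giving AC50 for influx inhibition (geometric mean, ≥2 runs).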
For C[C@@H](COc1ccc(S(C)(=O)=O)cc1)N1CCC2(CC1)C(=O)Nc1ccc(Cl)cc12 (single isomer, unassigned) [Compound 10], the AC50 was 1270 nM.
C[C@@H](COc1ccc(S(C)(=O)=O)cc1)N1CCC2(CC1)C(=O)Nc1ccccc12 (single isomer, unassigned) [Compound 12] gave an AC50 of under 457 nM.
Work on C[C@@H](CN1CCC2(CC1)C(=O)Nc1ccccc12)Oc1ccc(S(C)(=O)=O)cc1 (single isomer, unassigned) [Compound 13] yielded an AC50 of under 587 nM.
Work on O=C1NCC2c3ccc(OCCN4CCC5(CC4)C(=O)Nc4ccc(Cl)cc45)cc3CCN12 (single isomer, unassigned) [Compound 116, (S) or (R)-5-chloro-1′-[2-({3-oxo-1H,2H,3H,5H,6H,10bH-imidazo[4,3-a]isoquinolin-8-yl}oxy)ethyl]-1,2-dihydrospiro[indole-3,4′-piperidin]-2-one] yielded an AC50 of 466 nM.
Molecule O=C1NCC2c3ccc(OCCN4CCC5(CC4)C(=O)Nc4ccc(Cl)cc45)cc3CCN12 (single isomer, unassigned) [Compound 117, (R) or (S)-5-chloro-1′-[2-({3-oxo-1H,2H,3H,5H,6H,10bH-imidazo[4,3-a]isoquinolin-8-yl}oxy)ethyl]-1,2-dihydrospiro[indole-3,4′-piperidin]-2-one] has an AC50 of 396 nM.
In the case of N#Cc1ccc2c(c1)C1(CCN(CCOc3ccc4c(c3)CCN3C(=O)NCC43)CC1)C(=O)N2 (single isomer, unassigned) [Compound 120, (R) or (S)-2-oxo-1′-[2-({3-oxo-1H,2H,3H,5H,6H,10bH-imidazo[4,3-a]isoquinolin-8-yl}oxy)ethyl]-1,2-dihydrospiro[indole-3,4′-piperidine]-5-carbonitrile], the AC50 is reported as 1190 nM.
Work on O=C1CCC2c3ccc(OCCN4CCC5(CC4)C(=O)Nc4ccc(Cl)cc45)cc3CCN12 (single isomer, unassigned) [Compound 122, (S) or (R)-5-chloro-1′-[2-({3-oxo-1H,2H,3H,5H,6H,10bH-pyrrolo[2,1-a]isoquinolin-8-yl}oxy)ethyl]-1,2-dihydrospiro[indole-3,4′-piperidin]-2-one] yielded an AC50 of 616 nM.
O=C1CCC2c3ccc(OCCN4CCC5(CC4)C(=O)Nc4ccc(Cl)cc45)cc3CCN12 (single isomer, unassigned) [Compound 123, (R) or (S)-5-chloro-1′-[2-({3-oxo-1H,2H,3H,5H,6H,10bH-pyrrolo[2,1-a]isoquinolin-8-yl}oxy)ethyl]-1,2-dihydrospiro[indole-3,4′-piperidin]-2-one] showed an AC50 of 796 nM.
CC(c1ccc(OCCN2CCC3(CC2)C(=O)Nc2ccc(C#N)cc23)cc1)S(C)(=O)=O (single isomer, unassigned) [Compound 134, (S) or (R)-1′-{2-[4-(1-methanesulfonylethyl)phenoxy]ethyl}-2-oxo-1,2-dihydrospiro[indole-3,4′-piperidine]-5-carbonitrile] was tested, and the AC50 was 879 nM.
In the case of CC(c1ccc(OCCN2CCC3(CC2)C(=O)Nc2ccc(C#N)cc23)cc1)S(C)(=O)=O (single isomer, unassigned) [Compound 135, (R) or (S)-1′-{2-[4-(1-methanesulfonylethyl)phenoxy]ethyl}-2-oxo-1,2-dihydrospiro[indole-3,4′-piperidine]-5-carbonitrile], the AC50 is reported as 763 nM.
CC(c1c(F)cc(OCCN2CCC3(CC2)C(=O)Nc2ccc(C#N)cc23)cc1F)S(C)(=O)=O (single isomer, unassigned) [Compound 138, (S) or (R)-1′-{2-[3,5-difluoro-4-(1-methanesulfonylethyl)phenoxy]ethyl}-2-oxo-1,2-dihydrospiro[indole-3,4′-piperidine]-5-carbonitrile] showed an AC50 of 1220 nM.
With CC(c1c(F)cc(OCCN2CCC3(CC2)C(=O)Nc2ccc(C#N)cc23)cc1F)S(C)(=O)=O (single isomer, unassigned) [Compound 139, (R) or (S)-1′-{2-[3,5-difluoro-4-(1-methanesulfonylethyl)phenoxy]ethyl}-2-oxo-1,2-dihydrospiro[indole-3,4′-piperidine]-5-carbonitrile] the AC50 was 1120 nM.
For CC(c1c(F)cc(OCCN2CCC3(CC2)C(=O)Nc2ccc(Cl)cc23)cc1F)S(C)(=O)=O (single isomer, unassigned) [Compound 142, (S) or (R)-5-chloro-1′-{2-[3,5-difluoro-4-(1-methanesulfonylethyl)phenoxy]ethyl}-1,2-dihydrospiro[indole-3,4′-piperidin]-2-one], the AC50 was 845 nM.
For CC(c1c(F)cc(OCCN2CCC3(CC2)C(=O)Nc2ccc(Cl)cc23)cc1F)S(C)(=O)=O (single isomer, unassigned) [Compound 143, (R) or (S)-5-chloro-1′-{2-[3,5-difluoro-4-(1-methanesulfonylethyl)phenoxy]ethyl}-1,2-dihydrospiro[indole-3,4′-piperidin]-2-one], the AC50 was 701 nM.
For CN=S(C)(=O)c1ccc(OCCN2CCC3(CC2)C(=O)Nc2ccc(Cl)cc23)cc1 (single isomer, unassigned) [Compound 148, (S) or (R)-5-chloro-1′-(2-{4-[methyl(methylimino)oxo-λ^6-sulfanyl]phenoxy}ethyl)-1,2-dihydrospiro[indole-3,4′-piperidin]-2-one], the AC50 was 960 nM.
CN=S(C)(=O)c1ccc(OCCN2CCC3(CC2)C(=O)Nc2ccc(Cl)cc23)cc1 (single isomer, unassigned) [Compound 149, (R) or (S)-5-chloro-1′-(2-{4-[methyl(methylimino)oxo-λ^6-sulfanyl]phenoxy}ethyl)-1,2-dihydrospiro[indole-3,4′-piperidin]-2-one] was tested, and the AC50 was 971 nM.
CN=S(C)(=O)c1ccc(OCCN2CCC3(CC2)C(=O)Nc2ccc(C#N)cc23)cc1 (single isomer, unassigned) [Compound 151, (S) or (R)-1′-(2-{4-[methyl(methylimino)oxo-λ^6-sulfanyl]phenoxy}ethyl)-2-oxo-1,2-dihydrospiro[indole-3,4′-piperidine]-5-carbonitrile] gave an AC50 of 1740 nM.
CN=S(C)(=O)c1ccc(OCCN2CCC3(CC2)C(=O)Nc2ccc(C#N)cc23)cc1 (single isomer, unassigned) [Compound 152, (R) or (S)-1′-(2-{4-[methyl(methylimino)oxo-λ^6-sulfanyl]phenoxy}ethyl)-2-oxo-1,2-dihydrospiro[indole-3,4′-piperidine]-5-carbonitrile] gave an AC50 of 1820 nM.
O=C1Nc2ccc(Cl)cc2C12CCN(CCOc1ccc(C3CCCS3(=O)=O)cc1)CC2 (single isomer, unassigned) [Compound 176, (S) or (R)-2-[4-(2-{5-chloro-2-oxo-1,2-dihydrospiro[indole-3,4′-piperidin]-1′-yl}ethoxy)phenyl]-1λ^6-thiolane-1,1-dione] was tested, and the AC50 was 547 nM.
O=C1Nc2ccc(Cl)cc2C12CCN(CCOc1ccc(C3CCCS3(=O)=O)cc1)CC2 (single isomer, unassigned) [Compound 177, (R) or (S)-2-[4-(2-{5-chloro-2-oxo-1,2-dihydrospiro[indole-3,4′-piperidin]-1′-yl}ethoxy)phenyl]-1λ^6-thiolane-1,1-dione] was tested, and the AC50 was 670 nM.
Molecule CS(=O)(=O)c1ccc(OCCN2CCC3(CC2)C(=O)Nc2c(C#N)cc(Cl)cc23)cc1 [Compound 9, 5-chloro-1′-[2-(4-methanesulfonylphenoxy)ethyl]-2-oxo-1,2-dihydrospiro[indole-3,4′-piperidine]-7-carbonitrile] has an AC50 of 1310 nM.
CS(=O)(=O)CCCn1ncc2cc(OCCN3CCC4(CC3)C(=O)Nc3ccc(Cl)cc34)ccc21 [Compound 14, 5-chloro-1′-(2-{[1-(3-methanesulfonylpropyl)-1H-indazol-5-yl]oxy}ethyl)-1,2-dihydrospiro[indole-3,4′-piperidin]-2-one] showed an AC50 of 704 nM.
Molecule O=C1Nc2ccc(Cl)cc2C12CCN(CCOc1ccc3c(cnn3C3COC3)c1)CC2 [Compound 15, 5-chloro-1′-(2-{[1-(oxetan-3-yl)-1H-indazol-5-yl]oxy}ethyl)-1,2-dihydrospiro[indole-3,4′-piperidin]-2-one] has an AC50 of 654 nM.
Work on CC(C)n1ncc2cc(OCCN3CCC4(CC3)C(=O)Nc3ccc(Cl)cc34)ccc21 [Compound 16, 5-chloro-1′-(2-{[1-(propan-2-yl)-1H-indazol-5-yl]oxy}ethyl)-1,2-dihydrospiro[indole-3,4′-piperidin]-2-one] yielded an AC50 of 1160 nM.
Work on O=C1Nc2ccc(Cl)cc2C12CCN(CCOc1ccc(S(=O)(=O)[C@H]3C[C@@H](O)C3)cc1)CC2 [Compound 17, 5-chloro-1′-[2-(4-{[(cis)-3-hydroxycyclobutyl]sulfonyl}phenoxy)ethyl]-1,2-dihydrospiro[indole-3,4′-piperidin]-2-one] yielded an AC50 of 1100 nM.
Work on O=C1CCc2cc(OCCN3CCC4(CC3)C(=O)Nc3ccc(Cl)cc34)ccc2N1C1COC1 [Compound 99, 5-chloro-1′-(2-{[1-(oxetan-3-yl)-2-oxo-1,2,3,4-tetrahydroquinolin-6-yl]oxy}ethyl)-1,2-dihydrospiro[indole-3,4′-piperidin]-2-one] yielded an AC50 of 643 nM.
For CS(=O)(=O)c1ccc(OCCN2CCC3(CC2)C(=O)Nc2ccc(C#N)cc23)cc1C(F)F [Compound 100, 1′-{2-[3-(difluoromethyl)-4-methanesulfonylphenoxy]ethyl}-2-oxo-1,2-dihydrospiro[indole-3,4′-piperidine]-5-carbonitrile], the AC50 was 503 nM.

Source: US12344610B2, “APOL1 inhibitors and methods of use” (Maze Therapeutics, Inc., priority 2022, dated 2025)
